The values below come from the NIST ThermoML archive (doi:10.1021/je049907t).

Numbers after ± are expanded uncertainties.

The conditions of data set [1]: for Normal melting temperature: Crystal 1, visual observation.
A short description of data set [2]: Molar enthalpy of transition or fusion. The conditions noted are these: Crystal.

Regarding `Cc1nc2ccccc2[nH]1` [2-methylbenzimidazole], the Normal melting temperature in data set [1] is 178.28 ± 0.5 °C.
The same measure, in the same setting: for `c1ccc2[nH]cnc2c1` [benzimidazole] the value was 172.36 ± 0.5 °C.
As for `c1ccc(-c2nc[nH]c2-c2ccccc2)cc1` [4,5-diphenylimidazole], the Triple point temperature in data set [1] (Crystal) was determined as 504.84 ± 1 K. Further, the “Molar enthalpy of transition or fusion” value in data set [2] stood at 8.17 ± 0.454 kcal/mol.
For `Cc1ncc[nH]1` [2-methylimidazole], the Normal melting temperature in data set [1] was determined as 146 ± 0.5 °C.
